From patent US7118895B2, “Process for producing aglycon by using diglycosidase and flavor-improved food containing the aglycon and converting agent to be used in the process” (Amano Enzyme Inc., priority 2000, dated 2006)

System: Crude diglycosidase
Assay: Examination of pH in the conversion into isoflavone aglycons by diglycosidase using soybean materials
Type: biochemical, Penicillium multicolor IAM7153
Design: Decomposition efficiency of genistin family in soymilk / Decomposition efficiency of genistin family in defatted soybean / Decomposition efficiency of daidzin family in defatted soybean: concentration or dose not given beside the values
Settings: for Decomposition efficiency of genistin family in roasted soy flour: 55° C.
Method: A substrate solution of 450 μL was prepared by suspending 50 mg of each soybean material (roasted soy flour (manufactured by Fuji Shokuryo K.K.), soymilk (manufactured by Gitoh Shokuhin K.K.), defatted soybean (manufactured by Fuji Seiyu K.K.), concentrated soybean protein (manufactured by Fuji Seiyu K.K.)), and adjusting the pH to 2 to 11 with hydrochloric acid or sodium hydroxide. Each enzyme solution of pH 2–11 wherein diglycosidase activity of crude diglycosidase was adjusted to 1.88 AU/mL was added thereto in an amount of 50 μL and the whole was reacted at 55° C. at the total volume of 500 μL. To the reaction mixture was added 700 μL of ethanol after 0, 1, 3, and 6 hours of the reaction. After stirring and ultrasonication, the mixture was subjected to centrifugal separation at 15,000 rpm and 4° C. for 10 minutes. The supernatant was filtered through a filter and the existence of isoflavone glycosides and aglycon isoflavones contained in the reaction mixture was detected by HLPC (Tables 15 to 26).

[1] = pH4.8, heat treatment of enzyme: no, reaction time 0 h
[2] = pH4.8, heat treatment of enzyme: no, reaction time 1 h
[3] = pH4.8, heat treatment of enzyme: no, reaction time 3 h
[4] = pH4.8, heat treatment of enzyme: no, reaction time 6 h
[5] = pH4.8, heat treatment of enzyme: yes, reaction time 6 h

Decomposition efficiency of genistin family in concentrated soybean protein (pH1.6, heat treatment of enzyme: no, reaction time 0 h): 42.5% | Decomposition efficiency of genistin family in concentrated soybean protein (pH1.6, heat treatment of enzyme: no, reaction time 1 h): 42.2% | Decomposition efficiency of genistin family in concentrated soybean protein (pH1.6, heat treatment of enzyme: no, reaction time 3 h): 40.6% | Decomposition efficiency of genistin family in concentrated soybean protein (pH1.6, heat treatment of enzyme: no, reaction time 6 h): 38.9% | Decomposition efficiency of genistin family in concentrated soybean protein (pH1.6, heat treatment of enzyme: yes, reaction time 6 h): 37.7% | Decomposition efficiency of genistin family in roasted soy flour (pH2, heat treatment of enzyme no, reaction time 0 h): 45.2 | Decomposition efficiency of genistin family in roasted soy flour (pH2, heat treatment of enzyme no, reaction time 1 h): 45.0 | Decomposition efficiency of genistin family in roasted soy flour (pH2, heat treatment of enzyme no, reaction time 3 h): 43.1 | Decomposition efficiency of genistin family in roasted soy flour (pH2, heat treatment of enzyme no, reaction time 6 h): 40.7 | Decomposition efficiency of genistin family in roasted soy flour (pH2, heat treatment of enzyme yes, reaction time 6 h): 41.2 | Decomposition efficiency of genistin family in soymilk (pH2.3, heat treatment of enzyme: no, reaction time 0 h): 0.6% | Decomposition efficiency of genistin family in soymilk (pH2.3, heat treatment of enzyme: no, reaction time 1 h): 0.7% | Decomposition efficiency of genistin family in soymilk (pH2.3, heat treatment of enzyme: no, reaction time 3 h): 0.8% | Decomposition efficiency of genistin family in soymilk (pH2.3, heat treatment of enzyme: no, reaction time 6 h): 0.6% | Decomposition efficiency of genistin family in soymilk (pH2.3, heat treatment of enzyme: yes, reaction time 6 h): 0.6% | Decomposition efficiency of genistin family in defatted soybean (pH2.6, heat treatment of enzyme: no, reaction time 0 h): 1.8% | Decomposition efficiency of genistin family in defatted soybean (pH2.6, heat treatment of enzyme: no, reaction time 1 h): 1.7% | Decomposition efficiency of genistin family in defatted soybean (pH2.6, heat treatment of enzyme: no, reaction time 3 h): 1.7% | Decomposition efficiency of genistin family in defatted soybean (pH2.6, heat treatment of enzyme: no, reaction time 6 h): 1.9% | Decomposition efficiency of genistin family in defatted soybean (pH2.6, heat treatment of enzyme: yes, reaction time 6 h): 1.6% | Decomposition efficiency of genistin family in concentrated soybean protein (pH2.7, heat treatment of enzyme: no, reaction time 0 h): 42.5% | Decomposition efficiency of genistin family in concentrated soybean protein (pH2.7, heat treatment of enzyme: no, reaction time 1 h): 44.3% | Decomposition efficiency of genistin family in concentrated soybean protein (pH2.7, heat treatment of enzyme: no, reaction time 3 h): 43.7% | Decomposition efficiency of genistin family in concentrated soybean protein (pH2.7, heat treatment of enzyme: no, reaction time 6 h): 44.0% | Decomposition efficiency of genistin family in concentrated soybean protein (pH2.7, heat treatment of enzyme: yes, reaction time 6 h): 42.5% | Decomposition efficiency of genistin family in roasted soy flour (pH3, heat treatment of enzyme no, reaction time 0 h): 45.2 | Decomposition efficiency of genistin family in roasted soy flour (pH3, heat treatment of enzyme no, reaction time 1 h): 45.2 | Decomposition efficiency of genistin family in roasted soy flour (pH3, heat treatment of enzyme no, reaction time 3 h): 41.9 | Decomposition efficiency of genistin family in roasted soy flour (pH3, heat treatment of enzyme no, reaction time 6 h): 43.5 | Decomposition efficiency of genistin family in roasted soy flour (pH3, heat treatment of enzyme yes, reaction time 6 h): 45.1 | Decomposition efficiency of genistin family in defatted soybean (pH3.4, heat treatment of enzyme: no, reaction time 0 h): 1.8% | Decomposition efficiency of genistin family in defatted soybean (pH3.4, heat treatment of enzyme: no, reaction time 1 h): 1.5% | Decomposition efficiency of genistin family in defatted soybean (pH3.4, heat treatment of enzyme: no, reaction time 3 h): 1.1% | Decomposition efficiency of genistin family in defatted soybean (pH3.4, heat treatment of enzyme: no, reaction time 6 h): 0.8% | Decomposition efficiency of genistin family in defatted soybean (pH3.4, heat treatment of enzyme: yes, reaction time 6 h): 1.8% | Decomposition efficiency of genistin family in soymilk (pH3.5, heat treatment of enzyme: no, reaction time 0 h): 0.6% | Decomposition efficiency of genistin family in soymilk (pH3.5, heat treatment of enzyme: no, reaction time 1 h): not detected | Decomposition efficiency of genistin family in soymilk (pH3.5, heat treatment of enzyme: no, reaction time 3 h): not detected | Decomposition efficiency of genistin family in soymilk (pH3.5, heat treatment of enzyme: no, reaction time 6 h): not detected | Decomposition efficiency of genistin family in soymilk (pH3.5, heat treatment of enzyme: yes, reaction time 6 h): 0.5% | Decomposition efficiency of genistin family in concentrated soybean protein (pH3.7, heat treatment of enzyme: no, reaction time 0 h): 43.1% | Decomposition efficiency of genistin family in concentrated soybean protein (pH3.7, heat treatment of enzyme: no, reaction time 1 h): 43.5% | Decomposition efficiency of genistin family in concentrated soybean protein (pH3.7, heat treatment of enzyme: no, reaction time 3 h): 36.9% | Decomposition efficiency of genistin family in concentrated soybean protein (pH3.7, heat treatment of enzyme: no, reaction time 6 h): 30.7% | Decomposition efficiency of genistin family in concentrated soybean protein (pH3.7, heat treatment of enzyme: yes, reaction time 6 h): 43.0% | Decomposition efficiency of genistin family in roasted soy flour (pH4, heat treatment of enzyme no, reaction time 0 h): 45.4 | Decomposition efficiency of genistin family in roasted soy flour (pH4, heat treatment of enzyme no, reaction time 1 h): 36.3 | Decomposition efficiency of genistin family in roasted soy flour (pH4, heat treatment of enzyme no, reaction time 3 h): 23.4 | Decomposition efficiency of genistin family in roasted soy flour (pH4, heat treatment of enzyme no, reaction time 6 h): 13.4 | Decomposition efficiency of genistin family in roasted soy flour (pH4, heat treatment of enzyme yes, reaction time 6 h): 45.4 | Decomposition efficiency of genistin family in defatted soybean [1]: 1.8% | Decomposition efficiency of genistin family in soymilk [1]: 0.5% | Decomposition efficiency of genistin family in defatted soybean [2]: 1.0% | Decomposition efficiency of genistin family in soymilk [2]: not detected | Decomposition efficiency of genistin family in defatted soybean [3]: 0.6% | Decomposition efficiency of genistin family in soymilk [3]: not detected | Decomposition efficiency of genistin family in defatted soybean [4]: 0.4% | Decomposition efficiency of genistin family in soymilk [4]: not detected | Decomposition efficiency of genistin family in defatted soybean [5]: 1.3% | Decomposition efficiency of genistin family in soymilk [5]: 0.6%
SMILES: CC(=O)OC[C@H]1O[C@@H](Oc2cc(O)c3c(=O)c(-c4ccc(O)cc4)coc3c2)[C@H](O)[C@@H](O)[C@@H]1O [acetylgenistin, 6″-O-acetylgenistin]
